The subject of this assay is CEM cells HIV-1 protection, formazan growth assay. As to the kind of experiment: NCI AIDS Antiviral Assay. Conditions: for IC50: measured here: growth of uninfected CEM cells. Summed up:
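Human CEM cells, uninfected and HIV-1-infected, exposed to five drug concentrations; growth measured by soluble formazan assay and scored as percent protection from infection, with protecting compounds retested.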

Calls of active or inactive are those of the source.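 The calls were made as follows: active = compounds giving half or more protection of infected cells from virus-caused growth loss, again on retest; inactive = the rest.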

As a reminder, the EC50 is the concentration at which the effect is half-maximal. By IC50 is commonly meant the concentration that inhibits the measured activity by half. Lower therefore signals higher potency.

`COC(=O)c1c(-c2ccccc2)sc(-c2cccc3ccccc23)c1C(=O)OC`: the result was inactive.

On to `S=C1N(c2ccc(Cl)cc2)C2=C(N=Nc3cc(Cl)ccc3Cl)C(=Nc3ccccc3S2)N1c1ccccn1`, for which the EC50 is over 40.7 µM and the IC50 was over 40.7 µM.

For the compound `O=C(NCc1ccccc1)c1n[nH][nH]c1=O`, the EC50 was over 200 µM and the IC50 is over 200 µM.

`O=C(O)c1ccc(-c2c3ccc(=O)cc-3oc3cc(O)ccc23)cc1` came in with an EC50 of over 200 µM and an IC50 of 107 µM.

Regarding `O=[N+]([O-])c1cc(C(F)(F)F)cc([N+](=O)[O-])c1CCl`, the result was inactive.

For the compound `CCOC(=O)c1c(SCCN2CCOCC2)n(-c2ccccc2)c(=S)n(-c2ccccc2)c1=O`, the EC50 was over 27.5 µM and the IC50 is over 27.5 µM.

In the case of `COC(=O)CC(=O)Nc1sccc1S(=O)(=O)c1ccccc1`, the EC50 is over 200 µM and the IC50 turned out to be 102 µM.

Regarding `CCCC1OC(CCC)C2CCCOC2O1` (stereo unspecified), the EC50 was over 200 µM and the IC50 is over 200 µM.

For `CCOC(=O)C12OC(OCC)(CC1(OCC)OCC)C1(CC1)C2=O` (stereo unspecified), the EC50 was over 200 µM and the IC50 was over 200 µM.

Consider `CC1(C)Nc2cccc3c(N=Nc4ccc(N=Nc5ccccc5)c5ccccc45)ccc(c23)N1`, for which the EC50 is over 200 µM and the IC50 came to 26.3 µM.

As to `C=Cc1c(-c2ccccc2)cnc2[nH]c3ccccc3c12`, the EC50 was over 13.8 µM and the IC50 is over 13.8 µM.

For the compound `CC12CCC3C4CCC(=O)C(CCC(=O)O)=C4CCC3(CO1)C2` (stereo unspecified), the EC50 is over 794 µM and the half-inhibitory concentration (IC50) is over 794 µM.

For the compound `COC(=O)C1=C(\O)C[C@@]2(C)CC[C@@H](C(=O)OC)C2C/C=C\1C(=O)OC` (stereo partly specified), the result was inactive.

`CC(=O)ONC(=O)CSc1nn2cc(-c3ccccc3)nc2s1`: the EC50 was 186 µM and the IC50 is over 200 µM.

In the case of `COc1cc(/C=C2\Cc3ccccc3C2=O)cc(OC)c1OC`, the EC50 is over 23.4 µM and the half-maximal inhibitory concentration (IC50) is over 23.4 µM.

For the compound `O=c1cc(Cl)c(=O)n(-c2ccccc2)[nH]1`, the EC50 was over 1120 µM and the IC50 came to 1070 µM.

On to `Cc1[nH]c(=O)nc(N/N=C/c2ccc(Cl)cc2)c1C(=O)Nc1ccc(Cl)cc1`, for which the result was inactive.

`CCOC(=O)/C=C\c1c(Cl)n(-c2ccccc2)c(=O)n(-c2ccccc2)c1=O`: the EC50 is over 200 µM and the IC50 is 31.6 µM.

On to `CCN(CC)c1ccc2cc(C(=O)Nc3nc(C45CC6CC(CC(C6)C4)C5)cs3)c(=O)oc2c1`, for which the EC50 is over 200 µM and the half-maximal inhibitory concentration (IC50) is over 200 µM.

For `CC(C)C(/C=C/c1ccc(Cl)cc1)=N\NC(=S)NN`, the EC50 is over 200 µM and the IC50 was determined as 12 µM.

For `C/C=C/C[P+](Cc1ccccc1)(c1ccccc1)c1ccccc1`, the EC50 is over 603 µM and the IC50 is 4.17 µM.

`Cc1ccc2oc(=O)ccc2c1`: the EC50 is over 427 µM and the IC50 was 174 µM.

Regarding `O=C1OC(c2ccccc2)(c2ccccc2)C(=O)OC1(c1ccccc1)c1ccccc1`, the EC50 was over 200 µM and the IC50 came to 148 µM.

As to `CCOc1cc2c(cc1O)CC[C@@H]1[C@@H]2CC[C@]2(C)C(OS(=O)OC3CC[C@@H]4[C@H]5CCc6cc(O)c(OCC)cc6[C@@H]5CC[C@@]34C)CC[C@@H]12` (stereo partly specified), the EC50 was over 2 µM and the IC50 amounted to 0.537 µM.

With `Cc1cccc(NC(=O)C(=O)C2C(=O)NC(=O)NC2=O)c1C`, the EC50 is over 832 µM and the IC50 was found to be 794 µM.

As for `Cc1ccc(-c2nnc(CCCCCCCCc3nnc(-c4ccc(C)cc4O)n3N)n2N)c(O)c1`, the EC50 is over 200 µM and the IC50 turned out to be 120 µM.

With `Clc1ccccc1C1SCc2nc3ccccc3n21` (stereo unspecified), the outcome was inactive.

For the compound `CCOC(=O)c1nn(Cc2ccccc2)c(=S)[nH]c1=O`, the outcome was inactive and the IC50 was found to be 123 µM.

Take `Cc1cc(=O)n2c3c(c4c(cc13)c(CO)cc(=O)n4C)OC2`: the result was inactive.

As to `Cc1cn([C@@H]2C[C@H]2CO)c(=O)[nH]c1=O`, the result was inactive.

Turning to `CCOc1ccccc1NC(=O)CC1Sc2ccccc2NC1=O` (stereo unspecified), the EC50 was over 55 µM and the IC50 was over 55 µM.

On to `CCOc1ccc(NC(=O)C2=C(C)NC(C)=C(C(=O)Nc3ccc(OCC)cc3)C2c2ccc(O)c(OC)c2)cc1`, for which the EC50 is over 17 µM and the IC50 is over 17 µM.

Turning to `Cc1ccc(S(=O)(=O)n2cc(C=O)c(-c3cn(S(=O)(=O)c4ccc(C)cc4)cc3-c3cn(S(=O)(=O)c4ccc(C)cc4)cc3C=O)c2)cc1`, the EC50 is over 200 µM and the IC50 was 19.5 µM.

Turning to `O=C(/C=C/c1ccc([N+](=O)[O-])cc1)c1ccc(NCc2nc3ccccc3[nH]2)cc1`, the EC50 is over 13.2 µM and the IC50 was over 13.2 µM.

For `COc1ccc(OC)c(/C=C/[N+](=O)[O-])c1`, the EC50 is over 200 µM and the IC50 came to 2.95 µM.

On to `CC(C)=CCC/C(C)=C/Cc1cc2ccc(=O)oc2cc1O`, for which the EC50 was over 63.1 µM and the IC50 was 32.4 µM.

On to `CC(C)CCOC(=O)NC(Nc1ccc(F)cc1)(C(F)(F)F)C(F)(F)F`, for which the outcome was inactive.

Regarding `O=c1c2ccccc2nc(-c2cccc(Cl)c2)n1NC1OC(CO)C(O)C(O)C1O` (stereo unspecified), the outcome was inactive.

As to `CCCCNC(=O)NNC(=O)c1cc(/C=C/c2cccc([N+](=O)[O-])c2)ncn1`, the EC50 was over 178 µM and the IC50 is over 178 µM.

Take `Nc1ccc2nc3ccc(O)cc3nc2c1`: the EC50 was over 200 µM and the IC50 is 17 µM.

Take `O=C(c1ccccc1)c1nc2ccc(Cl)cc2cc1C(Br)Br`: the EC50 is over 3.31 µM and the IC50 was over 3.31 µM.

For the compound `O=[N+]([O-])c1ccc(C2=Cc3ccc4ccccc4[n+]3NC2)cc1`, the EC50 was over 50.1 µM and the IC50 was over 50.1 µM.

Take `COc1ccc(Nc2cc(=O)[nH]c(=O)[nH]2)cc1`: the EC50 is over 200 µM and the IC50 was over 200 µM.

For `C/C(CN1C(=O)c2ccccc2C1=O)=N\NS(C)(=O)=O`, the EC50 is over 851 µM and the IC50 worked out at 589 µM.

In the case of `O=C1CCCn2c(nc3ccccc32)N1`, the EC50 was over 200 µM and the IC50 was over 200 µM.

`CC(O)(C#N)CC(O)(C(F)(F)Cl)C(F)(F)Cl` (stereo unspecified): the EC50 was 195 µM and the IC50 was over 200 µM.

Consider `C=C(Br)CN(C#N)CC(=C)Br`, for which the EC50 was over 200 µM and the IC50 was over 200 µM.

Turning to `CC1(CO)COC(C)(C)OC1`, the EC50 was over 1550 µM and the IC50 was determined as 1410 µM.

As for `CCN(CC)CCNc1ccc2ncn3c4c(OC)cccc4c(=O)c1c23`, the EC50 was over 50.1 µM and the IC50 is 0.871 µM.

Take `N=c1ncn(Cc2ccccc2)c2nc[nH]c12`: the EC50 is over 200 µM and the 50% inhibitory concentration (IC50) was over 200 µM.

Regarding `COC(=O)c1nc(-c2ccc(Cl)c(Cl)c2)nc2ccccc12`, the outcome was inactive.

`S=c1cn[nH]c2c(Br)cccc12`: the EC50 is over 89.1 µM and the 50% inhibitory concentration (IC50) turned out to be 67.6 µM.

Take `O=C(/C=C/c1ccccc1O)c1ccccc1O`: the EC50 is over 209 µM and the IC50 was over 209 µM.

For `COc1ccc(/C=C(\C#N)c2ccc(Cl)cc2)cc1OC`, the EC50 was over 200 µM and the IC50 turned out to be 174 µM.

`COC(=O)[C@@H]1C[C@@]23CCCN4CC[C@@]5(c6cccc(OC)c6N(C=O)[C@]15CC2)[C@@H]43`: the EC50 is over 66.1 µM and the IC50 was over 66.1 µM.

On to `CCOP(=O)(O)Cc1c(Cl)c(Cl)c(CP(=O)(O)OCC)c(Cl)c1Cl`, for which the EC50 is over 200 µM and the IC50 turned out to be 132 µM.

Regarding `COc1ccc2c(c1)c(C(=O)O)cc(=O)n2C`, the EC50 was over 200 µM and the IC50 is over 200 µM.

As to `O=[N+]([O-])c1cccc2nc3ccccc3c(NCCCn3ccnc3[N+](=O)[O-])c12`, the EC50 was over 0.2 µM and the IC50 is 0.0457 µM.

As to `Cc1ccc(N2C(=O)/C(=c3\s/c(=C(/N)O)c(=N)n3-c3ccccc3)SC2=S)cc1`, the EC50 is over 4.57 µM and the concentration for half-maximal inhibition (IC50) is over 4.57 µM.

Take `O=c1ccccc2c(/C=C/c3ccccc3)nn(-c3ccccc3)c12`: the result was inactive.

As for `O=C(NCP(=O)(c1ccccc1)c1ccccc1)OCc1ccccc1`, the EC50 was over 200 µM and the IC50 was over 200 µM.

Consider `C/C(=N\O)C(CN(C)C)C(c1ccccc1)c1c(O)c2ccccc2oc1=O` (stereo unspecified), for which the EC50 was over 32.4 µM and the IC50 was 21.9 µM.

In the case of `Cc1ccccc1-c1nc(/C=C2\C(=O)C=Cc3ccccc32)c(O)o1`, the EC50 was over 200 µM and the IC50 is over 200 µM.

As for `CC(C)C(NCc1c2ccccc2[n+]([O-])c2ccccc12)C(=O)O` (stereo unspecified), the outcome was inactive.

Regarding `CCCCCCCCCCCCCCC(C)CCC(=O)O` (stereo unspecified), the result was inactive.

Consider `O=C1N=NC(=O)N1c1cc(C(F)(F)F)cc(C(F)(F)F)c1`, for which the EC50 is over 200 µM and the IC50 worked out at 2.88 µM.

As for `CC(=O)/C=C(/C)[O-].CCN(CC)CCNCCN.O=N[O-].[Co+3].[O-][Cl+3]([O-])([O-])[O-]`, the EC50 was over 200 µM and the IC50 was over 200 µM.

On to `CCCCC1(c2sccc2C(O)(C(F)F)C(F)(F)F)NC(C)(C)CO1` (stereo unspecified), for which the EC50 is over 200 µM and the IC50 was determined as 126 µM.

Turning to `CCSc1c2cc(OC)ccc2nc2ccc(OC)cc12`, the EC50 is over 200 µM and the IC50 stood at 6.92 µM.

As to `Cc1cc(Cl)ccc1NC(=O)/C(Cl)=C(/Cl)C(=O)O`, the outcome was inactive.

Turning to `NC1CC=C(COC(=O)C(O)(c2ccccc2)C2CC2)CC1` (stereo unspecified), the EC50 is over 200 µM and the IC50 was over 200 µM.

For `CC(C)C1CC(CO)(CNc2nc(N)nc(Cl)c2/C=N\O)C1` (stereo unspecified), the EC50 is over 20 µM and the IC50 stood at 0.0331 µM.

`CCOC(=O)/C(=C/c1ccc2ccccc2c1)P(=O)(OCC)OCC`: the EC50 is over 100 µM and the IC50 is 24 µM.

As for `C=C(CN(C)C)C(=O)c1ccc(Oc2ccccc2)cc1`, the EC50 is over 200 µM and the 50% inhibitory concentration (IC50) worked out at 3.47 µM.

Consider `CCc1nc(N)nc(N)c1-c1ccc(Cl)c(N=NN(C)C)c1`, for which the EC50 is over 1 µM and the IC50 turned out to be 0.589 µM.

These data come from PubChem BioAssay AID179 (DTP/NCI, 2004).
